Data: patent US20120238630A1, “COMPOSITIONS COMPRISING NONSTEROIDAL ANTI - INFLAMMATORY DRUGS” (Alfa Wassermann S.P.A., priority 2009, published 2012)

Test: Bioavailability / systemic FP plasma concentration after oral nebulization of the liquid composition containing FP
Assay type: in vivo, human
Procedure: The solutions have been administered to 26 healthy volunteers, among whom 16 were males and 10 females, aged between 18 and 55.
The healthy volunteers received the pharmaceutical composition prepared according to Example 1 in two 200 μl nebulizations three times a day, for a seven-day period, then a single administration on the eighth day.
[…]
During the period of administration of the composition object of the present invention, blood samples were taken before each administration and on days 1, 4, 6, 7 and 8.
The plasma concentration was determined for each patient before the first dose and, successively, in the morning of the days 1, 4, 6, 7 and 8 and after 1, 2, 3, 4, 6, 8, 10, 12, 16 and 24 hours since the last treatment.
Each sample was moved into a test tube containing heparin and centrifuged, and the plasma was divided into 500 μl aliquots and freezed at −80° C.
The following parameters were determined:
Tmax: time wherein Cmax is reached.
AUC: area subtended to the concentration-time curve calculated by means of the linear trapezoidal rule.

[1] = after the last administration (day 8)

FP average plasma concentrations (1 hour after the last administration (day 8)): 0.182 µg/mL
FP average plasma concentrations (2 hours after the last administration (day 8)): 0.144 µg/mL
FP average plasma concentrations (3 hours after the last administration (day 8)): 0.115 µg/mL
FP average plasma concentrations (4 hours after the last administration (day 8)): 0.096 µg/mL
FP average plasma concentrations (6 hours after the last administration (day 8)): 0.067 µg/mL
FP average plasma concentrations (8 hours after the last administration (day 8)): 0.045 µg/mL
FP average plasma concentrations (10 hours after the last administration (day 8)): 0.029 µg/mL
FP average plasma concentrations (12 hours after the last administration (day 8)): 0.020 µg/mL
FP average plasma concentrations (16 hours after the last administration (day 8)): 0.008 µg/mL
FP average plasma concentrations (24 hours after the last administration (day 8)): 0.001 µg/mL
FP systemic concentrations (after repeated oral nebulization, healthy volunteers): very low
AUC0-inf. [1]: 1140 ng·h/mL
AUC0-inf. higher than the AUC at the last point [1]: ca. 20%
Cmax (after the last administration (day 8), Example 1 composition nebulized in oral cavity, healthy volunteers): 182 ± 50 ng/mL
Tmax (after the last administration (day 8), Example 1 composition, healthy volunteers): 1 h
AUC0-24 (after the last administration (day 8), linear trapezoidal rule): 940 ng·h/mL
FP average plasma concentrations (day 1, time 0 (before the first dose), Example 1 composition, 26 healthy volunteers): 0.000 µg/mL
FP average plasma concentrations (day 4, time 0, two 200 μl nebulizations three times a day, Example 1 composition): 0.043 µg/mL
FP average plasma concentrations (day 6, time 0, two 200 μl nebulizations three times a day, Example 1 composition): 0.042 µg/mL
FP average plasma concentrations (day 7, time 0, two 200 μl nebulizations three times a day, Example 1 composition): 0.039 µg/mL
FP average plasma concentrations (day 8, time 0, after seven days of two 200 μl nebulizations three times a day, Example 1 composition): 0.040 µg/mL
amount absorbed, times lower than solutions of the same concentration administered by oral route (oropharyngeal application versus literature oral data (Stalker 1991; Gonzalez-Younes 1991)): about 10 times
FP accumulation in plasma after repeated administrations (three times a day for seven days, plasma on days 1, 4, 6, 7 and 8): no FP accumulation
Substance: 2-(2-fluoro-4-phenyl-phenyl) propionic acid [FP]
